Measured values taken from US11974989B2, “Therapeutic uses of glucokinase activators in combination with insulin or insulin analogs” (vTv Therapeutics LLC, priority 2018, dated 2024).
Where “and” joins values, the source holds several entries; their conditions need not be identical. Equal entries are not always repeated.

Tests used:
Assay type in all cases: in vivo, human
[1] = tested on: adult patients with type 1 diabetes (T1DM); assay: Open-label weekly dose escalation study: safety labs; conditions: 400, 800, 1200 mg once daily, 7 days each
Experimental: (§1) An open-label, weekly dose escalation study with up to 3 dose escalations was conducted. Five adult patients with type 1 diabetes (T1DM) who were using a continuous glucose monitoring (CGM) device and insulin delivered by continuous subcutaneous insulin infusion (CSII) were dosed with a once daily with a dose of 400, 800 or 1200 mg of {2-[3-cyclohexyl-3-(trans-4-propoxy-cyclohexyl)-ureido]-thiazol-5-ylsulfanyl}-acetic acid (UT-1) for seven days at each dose level.
(§2) The initial 7 days (days −7 to −1) of the study were used to obtain baseline laboratory samples and to record baseline insulin doses and blood glucose levels during a patient's usual insulin, dietary, and activity regimen. The once daily treatment dose of UT-1 was administered morning meal. Safety labs were collected on days −7, 1, 8, 15, 21 and 28. Insulin pump data and CGM data for each dosing period was collected on days 1, 8, 15, 21, and 28. Insulin was adjusted by a patient as required to maintain glycemic control. Data from day 3 to day 6 of each dosing period or baseline period was used in the analysis of the data.

[2] = Open-label weekly dose escalation study: pharmacokinetic data; conditions: 1200 mg group compared to the 800 mg group
Experimental: as §1, §2

adult patients with T1DM [3] = assay: Multi-center double-blind placebo-controlled 12-week study: safety and tolerability; conditions: 800 mg once daily up to 12 weeks
Experimental: (§3) A multi-center double-blind placebo-controlled study with a 2-week single-blind placebo run-in period to evaluate UT-1 as a potential adjunctive treatment to insulin therapy for T1DM was conducted. The study examined the response in 20 adult patients with T1DM who were using a continuous glucose monitoring (CGM) device and insulin delivered by continuous subcutaneous insulin infusion (CSII) dosed once daily with either placebo or 800 mg UT-1 for up to 12 weeks. The once daily treatment was administered with the morning meal. Safety and assessments labs were collected prior to the placebo-run in period, at Day 1 prior to dosing with blinded study medication, at weeks 2, 4, 6, 8, 12 and at approximately week 13. Insulin pump data and CGM data was collected from the single-blind placebo run-in period to the end of dosing. A quality of life and treatment satisfaction questionnaires were also used. Insulin was adjusted by patients as required to maintain glycemic control.

[4] = tested on: adult patients with type 1 diabetes (T1DM); assay: Open-label weekly dose escalation study: CGM blood glucose time in range; conditions: for median value of the percentage of time blood glucose levels were in the range of 70-180 mg/dL: median over subjects (FIG. 1), baseline 52.0%; for median value of the percentage of time blood glucose levels were greater than 180 mg/dL (hyperglycemia): median over subjects (FIG. 4), baseline 37%; for Percentage of time (using CGM) blood glucose level is in range of 70-180 mg/dL / Percentage of time (using CGM) blood glucose level is above 180 mg/dL / Percentage of time (using CGM) blood glucose level is below 54 mg/dL / Percentage of time (using CGM) blood glucose level is between 54 and 70 mg/dL: median of days 3-6, one per subject 1-5
Experimental: as §1, §2

[5] = tested on: adult patients with type 1 diabetes (T1DM); assay: Open-label weekly dose escalation study: insulin pump data (bolus and basal insulin dose); conditions: for mean value of bolus insulin dose per day: over subjects (FIG. 5), baseline 27.1 mean U/day; for Mean units of basal insulin units administered per day / Mean units of bolus insulin units administered per day: mean of days 3-6, one per subject 1-5
Experimental: as §1, §2

adult patients with T1DM [6] = assay: Multi-center double-blind placebo-controlled 12-week study, adjunct to insulin: HbA1c, responder analysis, ketones, insulin usage
Experimental: as §3
Patients in this study received insulin adjustments to optimize glucose levels. […] Of all study patients, there was a greater proportion of responders in the group treated with UT-1 (75%) than in the placebo group (9%) (p=0.006).

SMILES: CCCO[C@H]1CC[C@H](N(C(=O)Nc2ncc(SCC(=O)O)s2)C2CCCCC2)CC1 [UT-1, {2-[3-cyclohexyl-3-(trans-4-propoxy-cyclohexyl)-ureido]-thiazol-5-ylsulfanyl}-acetic acid]
- effect on liver function or plasma lipids [1]: No detrimental effect
- concentrations of UT-1 (pharmacokinetic data) [2]: lower in 3 out of 5 subjects
- tolerability (adult patients with T1DM [3]; similar incidences of treatment-emergent adverse events overall and by system organ class): well tolerated
- diabetic ketoacidosis or severe hypoglycemia reports (adult patients with T1DM [3]; whole study): no report of diabetic ketoacidosis or severe hypoglycemia
- serious adverse events (adult patients with T1DM [3]; whole study): no serious adverse event
- median value of the percentage of time blood glucose levels were in the range of 70-180 mg/dL ([4]; 400 mg dose): 67.9%
- median value of the percentage of time blood glucose levels were greater than 180 mg/dL (hyperglycemia) ([4]; 400 mg dose): 30.92%
- median value of the percentage of time blood glucose levels were in the range of 70-180 mg/dL ([4]; 800 mg dose): 75.7%
- median value of the percentage of time blood glucose levels were greater than 180 mg/dL (hyperglycemia) ([4]; 800 mg dose): 20.46%
- Percentage of time (using CGM) blood glucose level is in range of 70-180 mg/dL ([4]; UT-1 400 mg once daily for 7 days with CSII insulin): 69.3% and 56.3% and 69.6% and 67.9% and 56.8%
- Percentage of time (using CGM) blood glucose level is above 180 mg/dL ([4]; UT-1 400 mg once daily): 20.91% and 42.54% and 22.49% and 30.92% and 36.99%
- Percentage of time (using CGM) blood glucose level is below 54 mg/dL ([4]; UT-1 400 mg once daily): 0% (3×) and 2.42% and 1.88%
- Percentage of time (using CGM) blood glucose level is between 54 and 70 mg/dL ([4]; UT-1 400 mg once daily): 4.2% and 0.86% and 5.54% and 0.54% and 4.97%
- Percentage of time (using CGM) blood glucose level is in range of 70-180 mg/dL ([4]; UT-1 800 mg once daily for 7 days with CSII insulin): 44.3% and 65.4% and 85.9% and 82.7% and 75.7%
- Percentage of time (using CGM) blood glucose level is above 180 mg/dL ([4]; UT-1 800 mg once daily): 50.66% and 34.56% and 14.07% and 16.82% and 20.46%
- Percentage of time (using CGM) blood glucose level is below 54 mg/dL ([4]; UT-1 800 mg once daily): 1.38% and 0% (4×)
- Percentage of time (using CGM) blood glucose level is between 54 and 70 mg/dL ([4]; UT-1 800 mg once daily): 3.27% and 0% (2×) and 0.17% and 0.69%
- Percentage of time (using CGM) blood glucose level is in range of 70-180 mg/dL ([4]; UT-1 1200 mg once daily for 7 days with CSII insulin): 52.9% and 48.8% and 80.9% and 69.6% and 59.3%
- Percentage of time (using CGM) blood glucose level is above 180 mg/dL ([4]; UT-1 1200 mg once daily): 42.24% and 50.68% and 18.79% and 24.62% and 30.09%
- Percentage of time (using CGM) blood glucose level is below 54 mg/dL ([4]; UT-1 1200 mg once daily): 0% (4×) and 3.84%
- Percentage of time (using CGM) blood glucose level is between 54 and 70 mg/dL ([4]; UT-1 1200 mg once daily): 0.17% (2×) and 0.86% and 1.28% and 5.84%
- glycemic control and insulin dose (trend) ([4]; dose escalation 400, 800, 1200 mg once daily): trends toward improved glycemic control while reducing insulin dose
- mean value of bolus insulin dose per day ([5]; 400 mg dose): 25 mean U/day
- mean value of bolus insulin dose per day ([5]; 800 mg dose): 20 mean U/day
- Mean units of basal insulin units administered per day ([5]; UT-1 400 mg once daily): 23.9 mean U/day and 15.5 mean U/day and 29.3 mean U/day and 22.6 mean U/day
- Mean units of bolus insulin units administered per day ([5]; UT-1 400 mg once daily): 22.6 mean U/day and 29.9 mean U/day and 25.5 mean U/day and 23.3 mean U/day
- Mean units of basal insulin units administered per day ([5]; UT-1 800 mg once daily): 22.6 mean U/day and 15.3 mean U/day and 19.6 mean U/day and 29.8 mean U/day and 22.2 mean U/day
- Mean units of bolus insulin units administered per day ([5]; UT-1 800 mg once daily): 17.6 mean U/day and 23.4 mean U/day and 22.5 mean U/day and 22 mean U/day and 15.8 mean U/day
- Mean units of basal insulin units administered per day ([5]; UT-1 1200 mg once daily): 22.9 mean U/day and 13.9 mean U/day and 21.8 mean U/day and 30.5 mean U/day and 19.1 mean U/day
- Mean units of bolus insulin units administered per day ([5]; UT-1 1200 mg once daily): 16.2 mean U/day and 23.8 mean U/day and 20.9 mean U/day and 28 mean U/day and 25.2 mean U/day
- ratio of mean carbohydrate intake per day to mean bolus insulin dose per day ([5]; from baseline to 400 mg dose, and from 400 mg dose to 800 mg dose): increase
- mean difference in HbA1c in the UT-1 group relative to the placebo group (adult patients with T1DM [6]; 800 mg once daily, 12 weeks, p=0.03): 0.7%
- ending HbA1c (adult patients with T1DM [6]; 800 mg once daily, at 12 weeks, n=8): 6.7-6.8%
- mean reduction in HbA1c (adult patients with T1DM [6]; 800 mg once daily, at 12 weeks, n=8, baseline mean HbA1c 7.3%, statistically significant): 0.6%
- insulin usage (trend) (adult patients with T1DM [6]; 800 mg once daily, up to 12 weeks): trends toward decreased insulin usage
- patients with abnormal levels of metabolic ketones observed in plasma or urine (adult patients with T1DM [6]; 800 mg once daily, placebo 63%): 13%
- proportion of treatment responders (adult patients with T1DM [6]; responder: decrease in HbA1c at Week 12, no abnormal lactate or metabolic ketones, no increased time in Level 2 hypoglycemia, placebo 9%, p=0.006): 75%
